Experimental findings from patent US20230116602A1, “MCL1 INHIBITORS AND USES THEREOF” (California Institute of Technology, priority 2019, published 2023) are described below.

The test system of assay [1] is drug-sensitive cell lines of Table 3. The assay can be described thus: Cell line growth retardation assay, sensitive cohort. It counts as cell-based, Human. The settings on record: for pIC50: arithmetic mean of IC50s over the sensitive cohort of Table 3, 6 days growth, read-out: AvgSen IC50; for Fold Diff: average IC50 of resistant cohort divided by average IC50 of sensitive cohort. Summed up:
(§1)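 Cell lines classed as MCL1-inhibition sensitive or resistant were seeded, rested 24 h, then exposed to 10–0.0032 μM compound for 6 days. Cells were counted by imaging; growth inhibition was the ratio of population doublings with vs without compound from a pre-treatment baseline. IC50 from curve fits, averaged per cohort.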

Assay [2] relates to drug-resistant cell lines of Table 3. The assay can be described thus: Cell line growth retardation assay, resistant cohort. The class given is cell-based, Human. As to conditions: arithmetic mean of IC50s over the resistant cohort of Table 3, 6 days growth, read-out: AvgRes IC50. The method, boiled down: as §1
The next assay has as its target BCLXL (Homo sapiens, UniProt Q07817). Put plainly: BCLXL affinity assay (competition binding, qPCR readout). As to conditions: recombinant BCLXL, 11-point 3-fold dilution series. The protocol: (§2) Recombinant MCL1, BCL2 and BCXL proteins were prepared in either an E. coli host derived from the BL21 strain or in HEK-293 cells. The recombinant proteins were subsequently tagged with DNA for qPCR detection. Streptavidin-coated magnetic beads were treated for 30 minutes at room temperature with the respective biotinylated peptide ligands for each recombinant protein to generate affinity resins for the assays. The liganded beads were blocked with excess biotin and washed with blocking buffer (SeaBlock (Pierce), 1% BSA, 0.05% Tween 20, 1 mM DTT) to remove unbound ligand and to reduce nonspecific binding. Binding reactions were assembled by combining recombinant protein, liganded affinity beads, and test compounds in 1× binding buffer (20% SeaBlock, 0.17×PBS, 0.05% Tween 20, 6 mM DTT). Test compounds were prepared as 111X stocks in 100% DMSO. The compounds were then diluted directly into the assays such that the final concentration of DMSO was 0.9%. The assay plates were incubated at room temperature with shaking for 1 hour and the affinity beads were washed with wash buffer (1×PBS, 0.05% Tween 20). The beads were then re-suspended in elution buffer (1×PBS, 0.05% Tween 20, 0.5 μM non-biotinylated affinity ligand) and incubated at room temperature with shaking for 30 minutes. The recombinant protein concentration in the eluates was measured by qPCR. Kds were determined using an 11-point 3-fold compound dilution series with three DMSO control points.

The next assay deals with MCL1 (Homo sapiens, UniProt Q07820). Put plainly: MCL1 affinity assay (competition binding, qPCR readout). As to conditions: recombinant MCL1, 11-point 3-fold dilution series. The method, boiled down:
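Competition binding: DNA-tagged recombinant protein (E. coli BL21-derived or HEK-293), biotinylated peptide ligand-loaded streptavidin beads and compound incubated 1 hour at room temperature, 0.9% DMSO final. Bound protein eluted with 0.5 μM non-biotinylated ligand and quantified by qPCR; Kd from 11-point 3-fold dilution series.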
(In qPCR the cycle at which signal appears reflects the starting amount.)

The next assay addresses BCL2 (Homo sapiens, UniProt P10415). Put plainly: BCL2 affinity assay (competition binding, qPCR readout). As to conditions: recombinant BCL2, 11-point 3-fold dilution series. The protocol: as §2

The structures appear in SMILES notation. pIC50, pKd: −log10 of the molar value. Read-outs that look alike come from different tables or passages of the source.

Sequence of MCL1 (Q07820 whole entry): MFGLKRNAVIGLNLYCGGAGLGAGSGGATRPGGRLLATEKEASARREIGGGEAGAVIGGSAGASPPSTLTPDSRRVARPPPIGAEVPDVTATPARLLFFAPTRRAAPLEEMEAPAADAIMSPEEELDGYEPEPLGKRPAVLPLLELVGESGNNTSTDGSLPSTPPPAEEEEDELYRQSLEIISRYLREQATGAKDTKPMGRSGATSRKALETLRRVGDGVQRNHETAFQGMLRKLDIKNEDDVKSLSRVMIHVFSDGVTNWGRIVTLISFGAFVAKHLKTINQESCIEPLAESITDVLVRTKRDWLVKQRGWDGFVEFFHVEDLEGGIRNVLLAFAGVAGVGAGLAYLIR
Sequence of BCLXL (Q07817 whole entry): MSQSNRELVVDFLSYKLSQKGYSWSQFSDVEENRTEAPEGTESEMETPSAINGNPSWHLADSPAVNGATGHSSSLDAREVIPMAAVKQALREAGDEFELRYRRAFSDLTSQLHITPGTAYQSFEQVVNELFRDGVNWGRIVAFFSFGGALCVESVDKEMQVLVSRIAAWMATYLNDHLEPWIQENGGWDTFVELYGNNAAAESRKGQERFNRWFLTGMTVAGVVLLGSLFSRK
Sequence of BCL2 (P10415 whole entry): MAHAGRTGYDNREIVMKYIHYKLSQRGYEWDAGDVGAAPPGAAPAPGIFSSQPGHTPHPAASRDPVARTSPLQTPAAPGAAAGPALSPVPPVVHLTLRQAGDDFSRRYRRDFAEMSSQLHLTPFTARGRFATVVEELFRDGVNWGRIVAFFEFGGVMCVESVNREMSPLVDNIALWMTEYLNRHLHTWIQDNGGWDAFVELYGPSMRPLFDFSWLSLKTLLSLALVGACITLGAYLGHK

In the case of `Cc1c(-c2c(Cl)ncc3snc(O[C@H](Cc4ccccc4OCc4ccnn4CC(F)(F)F)C(=O)O)c23)ccc(OCCN2CCN(C)CC2)c1Cl` (single isomer, unassigned) [Compound 4], the pIC50 in assay [1] and in assay [2] was < 5.30 in each case. Further, the “Fold Diff” value in assay [1] is reported as “− (“−” represents a fold difference less than 10)”. For the same molecule, the pKd (usually the negative decadic logarithm of the Kd, by convention in mol/L) on BCLXL was < 5.82; on MCL1, 5.82 to 6.30; at BCL2, < 5.82.

`Cc1c(-c2c(-c3cccc4c3NC(=O)C4)ncc3snc(O[C@H](Cc4ccccc4OCc4ccnn4CC(F)(F)F)C(=O)O)c23)ccc(OCCN2CCN(C)CC2)c1Cl` (atropisomer, axis not shown) [Compound 12]: the pIC50 (usually the negative decadic logarithm of the IC50, by convention in mol/L) in assay [1] (Homo sapiens, 144 h) was < 5.30; in assay [2] (Homo sapiens, 144 h) it was < 5.30. Further, the “Fold Diff” value in assay [1] is recorded as “− (“−” represents a fold difference less than 10)”. The pKd at BCLXL, at MCL1 and on BCL2 was < 5.82 in each case.

As for `Cc1c(-c2c(-c3cn(C)c4ccccc34)ncc3snc(O[C@H](Cc4ccccc4OCc4ccnn4CC(F)(F)F)C(=O)O)c23)ccc(OCCN2CCN(C)CC2)c1Cl` (atropisomer, axis not shown) [Compound 20], the pIC50 in assay [1] (Homo sapiens, 144 h) was < 5.30; in assay [2] (Homo sapiens, 144 h), < 5.30. Besides, the “Fold Diff” value in assay [1] is “− (“−” represents a fold difference less than 10)”. Besides, the results for the pKd on BCLXL, on MCL1 and at BCL2 were < 5.82, 5.82 to 6.30 and < 5.82, respectively.

For `COc1cccc(-c2ncc3snc(O[C@H](Cc4ccccc4OCc4ccnc(-c5ccccc5OC)n4)C(=O)O)c3c2-c2ccc(OC[C@@H]3CCCN3C)c(Cl)c2C)c1` (atropisomer, axis not shown) [Compound 49], the pIC50 in assay [1] was 5.30 to 6.00; in assay [2], < 5.30. In assay [1], the “Fold Diff” value was “− (“−” represents a fold difference less than 10)”. For the same molecule, the pKd on BCLXL is < 5.82; on MCL1, ≥ 7.00; at BCL2, < 5.82.

For `COCCOc1ccc(-c2c(-c3cccc(OC)c3)ncc3snc(O[C@H](Cc4ccccc4OCc4ccnc(-c5ccccc5OC)n4)C(=O)O)c23)c(C)c1Cl` (atropisomer, axis not shown) [Compound 44], the pIC50 in assay [1] (Homo sapiens, 144 h) is < 5.30; in assay [2] (Homo sapiens, 144 h), < 5.30. Besides, the “Fold Diff” value in assay [1] is given as “− (“−” represents a fold difference less than 10)”. The pKd on BCLXL is < 5.82; at MCL1 it was ≥ 7.00; at BCL2 it was < 5.82.

As for `Cc1c(-c2c(-c3cccc4ccoc34)ncc3snc(O[C@H](Cc4ccccc4OCc4ccnn4CC(F)(F)F)C(=O)O)c23)ccc(OCCN2CCN(C)CC2)c1Cl` (atropisomer, axis not shown) [Compound 21], the pIC50 was 5.30 to 6.00 in assay [1] (Homo sapiens, 144 h) and < 5.30 in assay [2] (Homo sapiens, 144 h). Besides, the “Fold Diff” value in assay [1] is recorded as “− (“−” represents a fold difference less than 10)”. For the same molecule, the pKd at BCLXL is < 5.82; on MCL1, 6.30 to 7.00; on BCL2, < 5.82.

On to `COc1cccc(-c2ncc3snc(O[C@H](Cc4ccccc4OCc4ccnc(-c5ccccc5OC)n4)C(=O)O)c3c2-c2ccc(OCCN3CCCCC3)c(Cl)c2C)c1` (atropisomer, axis not shown) [Compound 43], for which the pIC50 is 5.30 to 6.00 in assay [1] (Homo sapiens, 144 h) and < 5.30 in assay [2] (Homo sapiens, 144 h). The “Fold Diff” value in assay [1] was “− (“−” represents a fold difference less than 10)”. In addition, the pKd on BCLXL is < 5.82; at MCL1 it was ≥ 7.00; at BCL2 it was < 5.82.

Regarding `COc1cccc(-c2ncc3snc(O[C@H](Cc4ccccc4OCc4ccnc(-c5ccccc5OC)n4)C(=O)O)c3c2-c2ccc(OCCC3CCN(C)CC3)c(Cl)c2C)c1` (atropisomer, axis not shown) [Compound 45], the pIC50 in assay [1] (Homo sapiens, 144 h) is 5.30 to 6.00; in assay [2] (Homo sapiens, 144 h) it was < 5.30. Also, the “Fold Diff” value in assay [1] is recorded as “− (“−” represents a fold difference less than 10)”. For the same molecule, the pKd is < 5.82 on BCLXL, ≥ 7.00 at MCL1 and < 5.82 at BCL2.

For the molecule `Cc1c(-c2c(-c3cccc(C(F)(F)F)c3)ncc3snc(O[C@H](Cc4ccccc4OCc4ccnn4CC(F)(F)F)C(=O)O)c23)ccc(OCCN2CCN(C)CC2)c1Cl` (atropisomer, axis not shown) [Compound 22], the pIC50 in assay [1] (Homo sapiens, 144 h) is 5.30 to 6.00; in assay [2] (Homo sapiens, 144 h), < 5.30. The “Fold Diff” value in assay [1] was “− (“−” represents a fold difference less than 10)”. The results for the pKd at BCLXL, at MCL1 and on BCL2 were < 5.82, 5.82 to 6.30 and < 5.82, respectively.

Consider `Cc1c(-c2c(-c3ccc(F)s3)ncc3snc(O[C@H](Cc4ccccc4OCc4ccnn4CC(F)(F)F)C(=O)O)c23)ccc(OCCN2CCN(C)CC2)c1Cl` (single isomer, unassigned) [Compound 2], for which the pIC50 in assay [1] is 5.30 to 6.00; in assay [2] it was < 5.30. The “Fold Diff” value in assay [1] is “− (“−” represents a fold difference less than 10)”. Further, the pKd was < 5.82 at BCLXL, 5.82 to 6.30 on MCL1 and < 5.82 on BCL2.

In the case of `Cc1c(-c2c(-c3cccc4c3sc3ccccc34)ncc3snc(O[C@H](Cc4ccccc4OCc4ccnn4CC(F)(F)F)C(=O)O)c23)ccc(OCCN2CCN(C)CC2)c1Cl` (atropisomer, axis not shown) [Compound 9], the pIC50 was < 5.30 in assay [1] (Homo sapiens, 144 h) and < 5.30 in assay [2] (Homo sapiens, 144 h). For the same molecule, the “Fold Diff” value in assay [1] is reported as “− (“−” represents a fold difference less than 10)”. The pKd on BCLXL, on MCL1 and on BCL2 was < 5.82 in each case.

For `COc1cccc(-c2ncc3snc(O[C@H](Cc4ccccc4OCc4ccnc(-c5ccccc5OC)n4)C(=O)O)c3c2-c2ccc(OCCN3CCCC3)c(Cl)c2C)c1` (atropisomer, axis not shown) [Compound 50], the pIC50 in assay [1] (Homo sapiens, 144 h) is ≥ 6.00; in assay [2] (Homo sapiens, 144 h), < 5.30. Further, in assay [1], the “Fold Diff” value is recorded as “+ (“+” represents a fold difference of 10 or more)”. Further, the pKd at BCLXL was < 5.82; on MCL1 it was ≥ 7.00; at BCL2, < 5.82.

As for `Cc1c(-c2c(-c3cccc4c3ccn4C)ncc3snc(O[C@H](Cc4ccccc4OCc4ccnn4CC(F)(F)F)C(=O)O)c23)ccc(OCCN2CCN(C)CC2)c1Cl` (atropisomer, axis not shown) [Compound 15], the pIC50 in assay [1] (Homo sapiens, 144 h) is < 5.30; in assay [2] (Homo sapiens, 144 h), < 5.30. In addition, in assay [1], the “Fold Diff” value is “− (“−” represents a fold difference less than 10)”. The pKd on BCLXL is < 5.82; on MCL1 it was 5.82 to 6.30; at BCL2 it was 5.82 to 6.30.

For `Cc1c(-c2c(-c3cccc4cc[nH]c34)ncc3snc(O[C@H](Cc4ccccc4OCc4ccnn4CC(F)(F)F)C(=O)O)c23)ccc(OCCN2CCN(C)CC2)c1Cl` (atropisomer, axis not shown) [Compound 18], the pIC50 was < 5.30 in assay [1] (Homo sapiens, 144 h) and < 5.30 in assay [2] (Homo sapiens, 144 h). Moreover, the “Fold Diff” value in assay [1] is recorded as “− (“−” represents a fold difference less than 10)”. Moreover, the pKd on BCLXL, at MCL1 and on BCL2 was < 5.82 in each case.

Consider `Cc1c(-c2c(-c3cccc4ccccc34)ncc3snc(O[C@H](Cc4ccccc4OCc4ccnn4CC(F)(F)F)C(=O)O)c23)ccc(OCCN2CCN(C)CC2)c1Cl` (atropisomer, axis not shown) [Compound 7], for which the pIC50 in assay [1] (Homo sapiens, 144 h) is < 5.30; in assay [2] (Homo sapiens, 144 h), < 5.30. In addition, the “Fold Diff” value in assay [1] was “− (“−” represents a fold difference less than 10)”. Moreover, the pKd on BCLXL, on MCL1 and on BCL2 was < 5.82 throughout.
